The values that follow come from US7790698B2, “Use of adenosine receptor agonists in therapy” (Cambridge Biotechnology Ltd, priority 2003, dated 2010).

Values after ≈ are worked out from the molar mass of the structure shown.

By EC50 is commonly meant the concentration at which the effect is half-maximal.

In series [1] the test system is carrageenan (CGN) induced inflammation. The series is described as follows: carrageenan induced inflammation, paw volume by plethysomometry (Example 1, FIG. 1). The class given is in vivo. How it is done: Carrageenan (2%, 10 microlitres) was administered into the right hind paw, and the paw volume assessed by plethysomometry. 2-methoxyadenosine was administered at the same time as carrageenan. 2-methoxyadenosine was as effective as indomethacin (Indo, 3 mg/kg p.o.).
Background: The carrageenan paw model is a standard test of acute inflammation.

The subject of series [2] is blood pressure and heart rate. The experiment in a line: radiotelemetry of blood pressure and heart rate (Example 2, FIG. 2). The class given is in vivo, rat. As to conditions: 0.6 mg/kg p.o., rats. As for the experimental part: FIG. 2: An implantable radiotelemetry device was placed in the abdominal cavity of 6 rats per group. The pressure catheter of the device was inserted in the abdominal aorta and two electrodes tunnelised under the skin in a lead II position (left side of abdominal cavity/right shoulder). Individual rats were placed in their own cage on a radioreceptor (DSI) for data acquisition. The effect of 0.6 mg/kg 2-methoxyadenosine or vehicle (p.o.) on blood pressure was then assessed. A: blood pressure; B: heart rate.

Series [3] in a line: plasma concentration over time after administration (Example 3, FIG. 3). The class given is in vivo, rat. As for the experimental part:
The EC50 value of 2-methoxyadenosine at the adenosine A2A receptor is 900 ng/ml (3 μM). […] It can be seen that the plasma concentration remains above 2% of the EC50 value for more than 3 hours. Anti-inflammatory effects have been observed (without blood pressure changes) when the peak and maintained plasma concentrations are as low […] (i.e. 2% of the EC50 value determined in vitro).

The test system of series [4] is carageenan-induced oedema in a rat paw. As to conditions: rats, 20 mg/kg po; cited from earlier work.
Series [5] has as its system mean blood pressure and heart rate. The settings on record: rats, 20 mg/kg po; cited from earlier work.
The target of series [6] is adenosine A2A receptor. As to conditions: cited from earlier work.

For `COc1nc(N)c2ncn([C@@H]3O[C@H](CO)[C@@H](O)[C@H]3O)c2n1` [2-methoxyadenosine], the “effect on blood pressure” value in series [1] (62.4 and 624 μg/kg i.p.) is “without affecting blood pressure”. Also, in series [1] (62.4 and 624 μg/kg i.p., given at the same time as carrageenan, versus indomethacin 3 mg/kg po), the “inhibition of carrageenan (CGN) induced inflammation (paw volume)” value was “comparable efficacy to indomethacin”. Also, in series [1] (plasma concentration), the “plasma concentration at which profound anti-inflammatory activity is seen” value is no more than 0.2 µM. In addition, in series [2], the “effect on blood pressure” value was “no significant effect” and the “effect on heart rate” value is “no significant effect”. Moreover, the “time the plasma concentration remains above 2% of the EC50 value” in series [3] (0.6 mg/kg to a rat) is given as “more than 3 hours”. For the same compound, the “peak and maintained plasma concentration at which anti-inflammatory effects were observed without blood pressure changes” value in series [3] (as low as, stated as 2% of the EC50 value) is 8 ng/mL. Also, in series [3] (peak plasma concentration 900 ng/ml, lasts for many hours), the “effect on blood pressure when the peak plasma concentration reaches the EC50 value” is listed as “profound reductions in blood pressure”. Also, in series [4], the “inhibition of carageenan-induced inflammation” value is reported as 25%. Moreover, in series [5], the “reduction in heart rate” value is listed as 25% and the “reduction in mean blood pressure” value was 41%. Further, the EC50 in series [6] (Daly et al. 1993) is 3 µM. The “EC50 value at the adenosine A2A receptor” value in series [6] (determined in vitro) was 0.9 µg/mL (≈ 3.03 µM).
